Test results taken from US20090217390A1, “Non-human animal sarcoma model” (priority 2005, published 2009).
“And” between values parts separate entries of the source, which are not always exact repeats. Equal values may be shown once.

What was measured:
Type in all cases: cell-based, mouse
[1] = tested on: C3H/10T1/2 parental cell line; experiment: Cytotoxicity experiment with increasing doses of blasticidin; conditions: doses 0.3-3 μg/ml
Method: The selective blasticidin dose was established on the basis of a previous cytotoxicity experiment for the C3H/10T1/2 parental cell line, which received increasing doses of blasticidin (0.3, 0.6, 0.8, 1, 1.5, 2, 2.5, 3 μg/ml). 2 μg/ml was determined to be the lowest dose that induced 100% death due to cytotoxicity.

[2] = tested on: EWS-FLI1 chimeric fusion expression in clone 7.5; experiment: Induction of chimeric fusion by doxycycline (RT-PCR), clone 7.5; conditions: 48 hours
Method: (§1) FIG. 3. Induction of chimeric fusion by Doxycycline. A. Upper gel. Induction of chimeric fusion following treatment of the cells with increasing doxycycline doses (0-3 μg/ml) in clone 7.5. The maximum induction was obtained for 2.5-μg/ml doxycycline doses. Lower gel. The quantity of amplified product was identical in all cases, as shown by Beta-actin. B. Upper gel. The maximum induction for clone 10.6 was at 1.5-μg/ml doxycycline doses. Higher doses caused saturation of the promoter's response. Lower gel. Beta-actin.
(§2) Clones 7.5 and 10.6 received increasing doses of doxycycline for 48 hours, after which time the presence of fusion was examined by means of RT-PCR.

[3] = tested on: EWS-FLI1 chimeric fusion expression in clone 10.6; experiment: Induction of chimeric fusion by doxycycline (RT-PCR), clone 10.6; conditions: 48 hours
Method: as §1, §2

| Structure (SMILES) | lowest dose that induced 100% death due to cytotoxicity [1] | doxycycline dose causing a slight induction of chimeric fusion [2] | doxycycline concentration of maximum induction of chimeric fusion ([2]; doses 0-3 μg/ml) | doxycycline concentration of maximum induction of chimeric fusion (higher doses cause no greater induction) [3] | doxycycline dose at which induction of fusion was found [3] |
| --- | --- | --- | --- | --- | --- |
| CN(CC[C@H](N)CC(=O)N[C@H]1C=C[C@H](n2ccc(N)nc2=O)O[C@@H]1C(=O)O)C(=N)N [blasticidin] | 2 µg/mL |  |  |  |  |
| C[C@H]1c2cccc(O)c2C(=O)C2=C(O)[C@]3(O)C(=O)C(C(N)=O)=C(O)[C@@H](N(C)C)[C@@H]3[C@@H](O)[C@@H]21 [doxycycline] |  | 0.3 µg/mL | 2.5 µg/mL | 1.5 to 2 µg/mL and 1.5 µg/mL | greater than 0.3 μg/ml |
